Test results published in patent publication US11124774B2, “Engineered liver tissues, arrays thereof, and methods of making the same” (Organovo, Inc., priority 2013, dated 2021).

Test system: bioprinted hepatic stellate cell tissues
Test: Stimulation of bioprinted hepatic stellate cell tissues with cytokine
Type: cell-based, human
Procedure: FIG. 15 is a non-limiting example of stimulation of bioprinted hepatic stellate cell tissues with TGF-β1.
Cylindrical bio-ink comprising relevant heterogeneous (i.e., polytypic) cell populations were prepared. Physiologically-relevant populations (e.g., hepatic stellate cells (hSC) and human aortic endothelial cells (EC)) of cells were combined at specific ratios to generate proper bio-ink. Cells were maintained and propagated under standard laboratory conditions and cells were cultured in media either purchased from the same vendor as the cells, or media comprising components typically found in the primary literature to be conducive to standard cell culture practices for those particular cell types. Cell processing for bio-ink preparation was as follows: briefly, cells were liberated from standard tissue culture plastic by washing with cation-free phosphate buffered saline (PBS) and then exposed to 0.1-0.05% trypsin (Invitrogen). Liberated cells were then washed in serum-containing media, collected, counted, and combined in an appropriate ratio for the stimulation assay or experiment being conducted, and pelleted by centrifugation. Supernatant was then removed and the cell pellet was aspirated into a glass microcapillary, which was then submerged in complete media for approximately 15 to 20 minutes. This cylindrical bio-ink structure was then extruded into a non cell-adherent hydrogel mold, containing linear channels and held for 2 to 18 hours. Cylindrical bio-ink containing hSC:EC was then used to fabricate bioprinted tissue constructs and maintained and/or matured in a humidified chamber. Tissue segments were fabricated with initial dimensions of 1.25 mm×8 mm×0.25 mm (W×L×H). During the post-bioprinting maturation period some constructs were exposed to the cytokine TGF-β1 to elicit a tissue-specific response (see FIG. 15).
The bioprinted neotissues were then submerged in serum-containing complete cell culture media and placed in a standard humidified chamber, supplemented with 5% CO2 for maturation. The bioprinted neotissues were then cultured and stimulated with a relevant cytokine(s) for a predetermined period of time, formalin-fixed, harvested, and processed for standard histology and immunohistochemistry. The bioprinted tissues were evaluated for characteristics such as, but not limited to for tissue morphology, cell organization, extracellular matrix production, cell proliferation, cell viability, and construct integrity.
Cytokine stimulation was conducted by adding cytokine directly to the culture media and incubating the bioprinted tissues with the added protein to provide direct and prolonged cell access to the proper stimulus. […]

[1] = 0-50 ng/mL, tissue sections of bioprinted hepatic stellate-containing tissues (FIG. 15E-H)

Substance: TGF-β1: cytokine (transforming growth factor beta 1) used to elicit a tissue-specific response in bioprinted tissues
- cell density [1]: dramatic decreases in cell density
- collagen deposition (Trichrome staining) [1]: increases in collagen deposition
- construct size [1]: increases
- tissue outgrowth formation (gross observation) (increasing concentrations 0, 1, 10, 50 ng/mL, bioprinted hepatic stellate cell sheets (FIG. 15A-D)): increases in tissue outgrowth formation
